Our source for the IC50 values is patent US10227357B2, “Compounds and methods for kinase modulation, and indications therefor” (Plexxikon Inc., priority 2012, dated 2019).

The target in one assay is T1, c-kit kinase (Homo sapiens, UniProt P10721).
T1 construct: The c-kit (or kinase domain thereof) is an active kinase in AlphaScreen; poly-Histidine tag (in-house protein only) (cleaved yes); host or cells: E. coli BL21(DE3)RIL, co-expressed with PTP1B
In words: c-Kit biochemical assay, AlphaScreen, 10 μM ATP. To be noted: c-kit biochemical inhibitory activity; read-out: Biochemical activity (IC50 μM) Kit. The method, then: IC50 values are determined with respect to inhibition of c-Kit kinase activity, where inhibition of phosphorylation of a peptide substrate is measured as a function of compound concentration. Compounds to be tested were dissolved in DMSO to a concentration of 20 mM. These were diluted 30 μl into 120 μl of DMSO (4 mM) and 1 μl was added to an assay plate. These were then serially diluted 1:3 (50 μl to 100 μl DMSO) for a total of 8 points. Plates were prepared such that each kinase reaction is 20 μl in 1× kinase buffer (50 mM HEPES, pH 7.2, 5 mM MgCl2, 5 mM MnCl2, 0.01% NP-40, 0.2% BSA), 5% DMSO and 10 μM ATP. […] C-kit kinase was at 0.1 ng per sample. After incubation of the kinase reaction for 1 hour at room temperature, 5 μl of donor beads (Streptavidin coated beads (Perkin Elmer Life Science) final concentration 1 μg/ml) in stop buffer (50 mM EDTA in 1× kinase buffer) was added, the sample was mixed and incubated for 20 minutes at room temperature before adding 5 μl of acceptor beads (PY20 coated beads (Perkin Elmer Life Science) final concentration 1 μg/ml) in stop buffer. The samples were incubated for 60 minutes at room temperature and the signal per well was read on AlphaQuest reader. […] The signal vs. compound concentration was used to determine the IC50.
Complementary DNA cloned from various human tissues were purchased from Invitrogen, and these were used as substrates in the PCR reactions. Specific custom synthetic oligonucleotide primers were designed to initiate the PCR product, and also to provide the appropriate restriction enzyme cleavage sites for ligation with the plasmids. The entire sequence encoding the enzyme was made through a gene synthesis procedure, using custom synthetic oligonucleotides covering the entire coding sequence (Invitrogen, see below).
The plasmid used for ligation with the kinase-encoding inserts was derivative of pET (Novagen) for expression using E. coli. The Kit kinase was engineered to include a Histidine tag for purification using metal affinity chromatography. The kinase-encoding plasmid was engineered as bicistronic mRNA to co-express a second protein that modifies the kinase protein during its expression in the host cell. Protein tyrosine phosphatase 1B (PTP), was co-expressed for dephosphorylation of the phospho-Tyrosines.
For protein expression, the plasmid containing the Kit gene was transformed into E. coli strains BL21(DE3)RIL and transformants selected for growth on LB agar plates containing appropriate antibiotics. Single colonies were grown overnight at 37° C. in 200 ml TB (Terrific broth) media. 16×1 L of fresh TB media in 2.8 L flasks were inoculated with 10 ml of overnight culture and grown with constant shaking at 37° C. Once cultures reached an absorbance of 1.0 at 600 nm, IPTG was added and cultures were allowed to grow for a further 12 to 18 hrs at temperatures ranging from 12-30° C. Cells were harvested by centrifugation and pellets frozen at […] until ready for lysis.
For protein Purification; frozen E. coli cell pellets were resuspended in lysis buffer and lysed using standard mechanical methods. Protein was purified via poly-Histidine tags using immobilized metal affinity purification IMAC. The Kit kinase was purified using a 3 step purification process utilizing; IMAC, size exclusion chromatography and ion exchange chromatography. The poly-Histidine tag was removed using Thrombin (Calbiochem).

In a further assay the target is T2, c-kit mutant D816V (Homo sapiens, UniProt P10721, D816V/DEL694-753).
T2 construct: residues 551-934, kinase insertion domain residues 694-753 deleted; 6x-histidine (N); made in house; host or cells: E. coli Arctic Express (DE3) RIL (Stratagene)
T2 sequence (P10721 with tags, fused parts or gaps DEL694-753/D816V): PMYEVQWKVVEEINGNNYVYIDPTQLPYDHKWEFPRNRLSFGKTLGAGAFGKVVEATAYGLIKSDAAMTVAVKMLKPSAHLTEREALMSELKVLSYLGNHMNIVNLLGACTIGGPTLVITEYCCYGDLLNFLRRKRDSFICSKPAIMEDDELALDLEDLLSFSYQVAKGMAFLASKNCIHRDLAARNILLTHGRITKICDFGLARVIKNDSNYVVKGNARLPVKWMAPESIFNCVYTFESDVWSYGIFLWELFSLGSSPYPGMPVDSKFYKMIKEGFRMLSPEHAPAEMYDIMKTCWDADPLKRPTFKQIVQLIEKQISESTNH
Put plainly: c-Kit mutant D816V biochemical assay, AlphaScreen. The settings on record: c-kit D816V biochemical inhibitory activity; read-out: Biochemical activity (IC50 μM) Kit D816V. In outline: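 Purified His-tagged c-Kit D816V (E. coli-expressed) assayed in 25 mM HEPES pH 7.2 with Mg/Mn, 5% DMSO and 10 μM ATP, 30 min at room temperature, 8-point 1:3 dilutions. Phosphorylation detected by AlphaScreen with streptavidin donor and PY20 acceptor beads; IC50 from signal versus concentration.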

T1 sequence (P10721 26-976): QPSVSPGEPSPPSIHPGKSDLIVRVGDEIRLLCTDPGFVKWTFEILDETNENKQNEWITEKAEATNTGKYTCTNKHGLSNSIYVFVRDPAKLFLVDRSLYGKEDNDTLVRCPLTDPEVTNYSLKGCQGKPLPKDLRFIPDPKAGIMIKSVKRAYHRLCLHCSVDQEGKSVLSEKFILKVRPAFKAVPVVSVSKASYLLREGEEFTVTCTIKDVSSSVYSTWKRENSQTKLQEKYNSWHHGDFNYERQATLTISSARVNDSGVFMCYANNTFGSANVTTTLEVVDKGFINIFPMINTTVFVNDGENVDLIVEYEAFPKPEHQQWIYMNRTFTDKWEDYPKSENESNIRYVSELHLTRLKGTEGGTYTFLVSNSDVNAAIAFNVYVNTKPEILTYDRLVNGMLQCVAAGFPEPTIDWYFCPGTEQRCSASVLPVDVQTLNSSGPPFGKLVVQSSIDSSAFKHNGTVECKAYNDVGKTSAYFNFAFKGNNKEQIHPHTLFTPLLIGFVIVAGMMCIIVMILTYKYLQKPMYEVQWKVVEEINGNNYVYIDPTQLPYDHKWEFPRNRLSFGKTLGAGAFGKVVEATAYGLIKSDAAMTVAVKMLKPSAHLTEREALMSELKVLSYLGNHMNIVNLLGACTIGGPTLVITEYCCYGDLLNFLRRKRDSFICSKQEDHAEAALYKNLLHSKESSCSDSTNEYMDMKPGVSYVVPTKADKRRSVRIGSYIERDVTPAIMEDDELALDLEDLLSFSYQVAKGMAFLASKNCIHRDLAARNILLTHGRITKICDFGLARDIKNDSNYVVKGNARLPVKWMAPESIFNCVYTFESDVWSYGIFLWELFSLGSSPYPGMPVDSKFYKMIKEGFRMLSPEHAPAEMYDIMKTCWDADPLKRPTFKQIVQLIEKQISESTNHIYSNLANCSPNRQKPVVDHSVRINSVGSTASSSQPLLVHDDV

For the compound `Cc1ccc(-c2cc3c(N4CCN(C(=O)N[C@@H](C)c5cccc(Cl)c5)C(C)(C)C4)ncnc3[nH]2)cn1` [P-0001, N-[(1S)-1-(3-chlorophenyl)ethyl]-2,2-dimethyl-4-[6-(6-methyl-3-pyridyl)-7H-pyrrolo[2,3-d]pyrimidin-4-yl]piperazine-1-carboxamide], the IC50 was 1 to 10 µM on c-kit kinase and 0.0001 to 1 µM on c-kit mutant D816V.

For `Cc1ccc(-c2cc3c(N4CCN(C(=O)N[C@@H](C)c5cccc(OC(F)F)c5)C(C)(C)C4)ncnc3[nH]2)cn1` [P-0002, N-[(1S)-1-[3-(difluoromethoxy)phenyl]ethyl]-2,2-dimethyl-4-[6-(6-methyl-3-pyridyl)-7H-pyrrolo[2,3-d]pyrimidin-4-yl]piperazine-1-carboxamide], the IC50 at c-kit kinase was 1 to 10 µM; at c-kit mutant D816V, 0.0001 to 1 µM.

For `COc1cccc([C@H](C)NC(=O)N2CCN(c3ncnc4[nH]c(C)cc34)CC2)c1` [P-0003, N-[(1S)-1-(3-methoxyphenyl)ethyl]-4-(6-methyl-7H-pyrrolo[2,3-d]pyrimidin-4-yl)piperazine-1-carboxamide], the IC50 is 10 to 200 µM at c-kit kinase and 0.0001 to 1 µM at c-kit mutant D816V.

With `COc1cc([C@H](C)NC(=O)N2CCN(c3ncnc4[nH]c(-c5ccc(F)cc5)cc34)C[C@H]2C)ccc1F` [P-0004, (2R)-N-[(1S)-1-(4-fluoro-3-methoxy-phenyl)ethyl]-4-[6-(4-fluorophenyl)-7H-pyrrolo[2,3-d]pyrimidin-4-yl]-2-methyl-piperazine-1-carboxamide], the IC50 lay in the range of 10 to 200 µM at c-kit kinase and 0.0001 to 1 µM on c-kit mutant D816V.

Turning to `C[C@H](NC(=O)N1CCN(c2ncnc3[nH]c(-c4ccc(F)cc4)cc23)CC1(C)C)c1cccc(F)c1` [P-0005, N-[(1S)-1-(3-fluorophenyl)ethyl]-4-[6-(4-fluorophenyl)-7H-pyrrolo[2,3-d]pyrimidin-4-yl]-2,2-dimethyl-piperazine-1-carboxamide], the values for the IC50 on c-kit kinase and on c-kit mutant D816V were 1 to 10 µM and 0.0001 to 1 µM, respectively.

Turning to `C[C@H](NC(=O)N1CCN(c2ncnc3[nH]c(-c4ccc(F)cc4)cc23)CC1(C)C)c1cccc(OC(F)F)c1` [P-0006, N-[(1S)-1-[3-(difluoromethoxy)phenyl]ethyl]-4-[6-(4-fluorophenyl)-7H-pyrrolo[2,3-d]pyrimidin-4-yl]-2,2-dimethyl-piperazine-1-carboxamide], the IC50 at c-kit kinase lay within 1 to 10 µM; at c-kit mutant D816V it was 0.0001 to 1 µM.

Consider `Cc1ccc(-c2cc3c(N4CCN(C(=O)N[C@@H](C)c5cccc(F)c5)C(C)(C)C4)ncnc3[nH]2)cn1` [P-0007, N-[(1S)-1-(3-fluorophenyl)ethyl]-2,2-dimethyl-4-[6-(6-methyl-3-pyridyl)-7H-pyrrolo[2,3-d]pyrimidin-4-yl]piperazine-1-carboxamide], for which the figures for the IC50 at c-kit kinase and on c-kit mutant D816V were 10 to 200 µM and 0.0001 to 1 µM, respectively.

`C[C@H](NC(=O)N1CCN(c2ncnc3[nH]c(-c4ccc(F)cc4)cc23)CC1(C)C)c1cccc(Cl)c1` [P-0008, N-[(1S)-1-(3-chlorophenyl)ethyl]-4-[6-(4-fluorophenyl)-7H-pyrrolo[2,3-d]pyrimidin-4-yl]-2,2-dimethyl-piperazine-1-carboxamide]: the IC50 on c-kit kinase lay in the range of 1 to 10 µM; on c-kit mutant D816V, 0.0001 to 1 µM.

`COc1cccc([C@H](C)NC(=O)N2CCN(c3ncnc4[nH]c(-c5ccnc(OC)c5)cc34)CC2(C)C)c1` [P-0009, N-[(1S)-1-(3-methoxyphenyl)ethyl]-4-[6-(2-methoxy-4-pyridyl)-7H-pyrrolo[2,3-d]pyrimidin-4-yl]-2,2-dimethyl-piperazine-1-carboxamide]: the IC50 was in the range of 1 to 10 µM at c-kit kinase and 0.0001 to 1 µM on c-kit mutant D816V.

With `Cn1cc(-c2cc3c(N4CCN(c5nc6ccccc6[nH]5)CC4)ncnc3[nH]2)cn1` [P-0010, 4-[4-(1H-benzimidazol-2-yl)piperazin-1-yl]-6-(1-methylpyrazol-4-yl)-7H-pyrrolo[2,3-d]pyrimidine], the IC50 on c-kit kinase and at c-kit mutant D816V was 0.0001 to 1 µM throughout.

As to `Fc1ccc(-c2cc3c(N4CCN(c5nc6ccccc6[nH]5)CC4)ncnc3[nH]2)cc1` [P-0011, 4-[4-(1H-benzimidazol-2-yl)piperazin-1-yl]-6-(4-fluorophenyl)-7H-pyrrolo[2,3-d]pyrimidine], the values for the IC50 at c-kit kinase and on c-kit mutant D816V were 10 to 200 µM and 0.0001 to 1 µM, respectively.

As for `Cn1cc(-c2cc3c(C4=CCC(NS(=O)(=O)c5ccc(OC(F)(F)F)cc5)CC4)ncnc3[nH]2)cn1` (centres unmarked) [P-0545, N-[4-[6-(1-methylpyrazol-4-yl)-7H-pyrrolo[2,3-d]pyrimidin-4-yl]cyclohex-3-en-1-yl]-4-(trifluoromethoxy)benzenesulfonamide], the IC50 at c-kit kinase is 1 to 10 µM.

For the compound `COc1cccc([C@H](C)NC(=O)N2CCN(c3ncnc4cc(N5CCOCC5)sc34)CC2)c1` [P-0548, N-[(1S)-1-(3-methoxyphenyl)ethyl]-4-(6-morpholinothieno[3,2-d]pyrimidin-4-yl)piperazine-1-carboxamide], at c-kit kinase, the half-inhibitory concentration (IC50) lay in the range of 1 to 10 µM.

For the compound `C[C@H](NC(=O)N1CC2CCC1CN2c1ncnc2cc(-c3ccc(F)cc3)sc12)c1cccc(Cl)c1` (stereo partly drawn) [P-0565, N-[(1S)-1-(3-chlorophenyl)ethyl]-5-[6-(4-fluorophenyl)thieno[3,2-d]pyrimidin-4-yl]-2,5-diazabicyclo[2.2.2]octane-2-carboxamide], the IC50 at c-kit kinase was 1 to 10 µM.

`Cc1ccc(S(=O)(=O)Nc2ccc(-c3cc4ncnc(N5CCN(C(=O)Nc6ccccc6)CC5)c4s3)cc2)cc1` [P-0625, N-phenyl-4-[6-[4-(p-tolylsulfonylamino)phenyl]thieno[3,2-d]pyrimidin-4-yl]piperazine-1-carboxamide]: the IC50 on c-kit kinase was 10 to 200 µM.

Regarding `Cn1cc(-c2cc3ncnc(N4CCN(C(=O)Nc5ccccc5)CC4)c3s2)cn1` [P-0627, 4-[6-(1-methylpyrazol-4-yl)thieno[3,2-d]pyrimidin-4-yl]-N-phenyl-piperazine-1-carboxamide], on c-kit kinase, the IC50 was in the range of 1 to 10 µM.

As for `Cc1ccc(S(=O)(=O)Nc2ccc(-c3ncnc4cc(-c5cnn(C)c5)sc34)cc2)cc1` [P-0628, 4-methyl-N-[4-[6-(1-methylpyrazol-4-yl)thieno[3,2-d]pyrimidin-4-yl]phenyl]benzenesulfonamide], the IC50 on c-kit kinase lay within 0.0001 to 1 µM.

Consider `CC(C)(C)c1cc2ncnc(N3CCN(C(=O)NCc4ccc(F)cc4)CC3)c2s1` [P-0637, 4-(6-tert-butylthieno[3,2-d]pyrimidin-4-yl)-N-[(4-fluorophenyl)methyl]piperazine-1-carboxamide], for which, at c-kit kinase, the 50% inhibitory concentration (IC50) was 10 to 200 µM.

For `CC(C)(C)c1cc2ncnc(N3CCN(C(=O)Nc4ccc(F)cc4)CC3)c2s1` [P-0639, 4-(6-tert-butylthieno[3,2-d]pyrimidin-4-yl)-N-(4-fluorophenyl)piperazine-1-carboxamide], on c-kit kinase, the half-inhibitory concentration (IC50) is 10 to 200 µM.

On to `O=S(=O)(NC1CCN(c2ncnc3[nH]c(-c4cc(Cl)cs4)cc23)CC1)c1ccc(OC(F)(F)F)cc1` [P-0670, N-[1-[6-(4-chloro-2-thienyl)-7H-pyrrolo[2,3-d]pyrimidin-4-yl]-4-piperidyl]-4-(trifluoromethoxy)benzenesulfonamide], for which the IC50 on c-kit kinase lay within 10 to 200 µM.

For the compound `C[C@H](NC(=O)N1CCN(c2ncnc3ccsc23)CC1(C)C)c1cccc(Cl)c1` [P-0682, N-[(1S)-1-(3-chlorophenyl)ethyl]-2,2-dimethyl-4-thieno[3,2-d]pyrimidin-4-yl-piperazine-1-carboxamide], the IC50 at c-kit kinase lay within 10 to 200 µM.
